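Each compound was tested at five concentrations against cells in 96-well plates for 48 hours. GI50 is the concentration that inhibits growth by half.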 Activity calls are given as the source filed them. No stated cut-off is given here; in the data, active = GI50 up to about 1.1 µM and inactive = higher.
Experiments:
Test in all cases: DTP human tumour cell line panel, 48 h
[1] = system: A549
[2] = system: ACHN
[3] = system: COLO 205
[4] = system: EKVX
[5] = system: HCT-15
[6] = system: HL-60
[7] = system: Hs-578T
[8] = system: IGROV-1
[9] = system: MDA-N
[10] = system: NCI-H522
[11] = system: OVCAR-3
[12] = system: OVCAR-4
[13] = system: RPMI-8226
[14] = system: SF-295
[15] = system: SK-MEL-28
[16] = system: SK-MEL-2
[17] = system: U-251
[18] = system: HCC 2998
[19] = system: SK-MEL-5

Compound: C1=N\CCN2CCN(CC/N=C\c3ccccc3OCc3cccc(n3)COc3ccccc3/1)CC2
- GI50 [1]: 44.6 µM (inactive)
- GI50 [2]: 9.71 µM (inactive)
- GI50 [3]: 19.6 µM (inactive)
- GI50 [4]: 13 µM (inactive)
- GI50 [5]: 6.01 µM
- GI50 [6]: 3.16 µM (inactive)
- GI50 [7]: 1.38 µM (inactive)
- GI50 [8]: 11.2 µM (inactive)
- GI50 [9]: 1.11 µM (active)
- GI50 [10]: 24.2 µM (inactive)
- GI50 [11]: 1.3 µM (inactive)
- GI50 [12]: 6.15 µM (inactive)
- GI50 [13]: 2.48 µM (inactive)
- GI50 [14]: 3.62 µM (inactive)
- GI50 [15]: 13.8 µM (inactive)
- GI50 [16]: 20.6 µM (inactive)
- GI50 [17]: 2.26 µM (inactive)

Compound: Cc1cc2c([N+](=O)[O-])cc3c(c2o1)C(=O)C=CC3=O
- GI50 [1]: 18.3 µM (inactive)
- GI50 [2]: 1.89 µM (inactive)
- GI50 [3]: 2.3 µM (inactive)
- GI50 [4]: 3.37 µM (inactive)
- GI50 [18]: 30.5 µM (inactive)
- GI50 [5]: 15 µM
- GI50 [6]: 2.2 µM (inactive)
- GI50 [7]: 18.5 µM (inactive)
- GI50 [8]: 7.41 µM (inactive)
- GI50 [9]: 14.5 µM (inactive)
- GI50 [10]: 1.52 µM (inactive)
- GI50 [11]: 5.64 µM (inactive)
- GI50 [12]: 16.1 µM (inactive)
- GI50 [13]: 0.586 µM (active)
- GI50 [14]: 8.13 µM (inactive)
- GI50 [15]: 8.85 µM (inactive)
- GI50 [16]: 19.1 µM (inactive)
- GI50 [19]: 14.2 µM (inactive)
- GI50 [17]: 17.7 µM (inactive)

Compound: C(=N\Nc1ccc(-c2nc3ccccc3[nH]2)cc1)/c1c(-c2ccc(Cc3ccccc3)cc2)[nH]c2ccccc12
- GI50 [1]: 6.85 µM (inactive)
- GI50 [2]: 11 µM (inactive)
- GI50 [3]: 3.94 µM (inactive)
- GI50 [4]: 20.4 µM (inactive)
- GI50 [18]: 3.83 µM (inactive)
- GI50 [5]: 4.07 µM
- GI50 [6]: 7.06 µM (inactive)
- GI50 [7]: 2.57 µM (inactive)
- GI50 [8]: 4.41 µM (inactive)
- GI50 [9]: 2.38 µM (inactive)
- GI50 [10]: 9.08 µM (inactive)
- GI50 [11]: 9.44 µM (inactive)
- GI50 [12]: 14.1 µM (inactive)
- GI50 [13]: 3.08 µM (inactive)
- GI50 [14]: 2.56 µM (inactive)
- GI50 [15]: 12.9 µM (inactive)
- GI50 [16]: 3.56 µM (inactive)
- GI50 [19]: 6.41 µM (inactive)
- GI50 [17]: 6.01 µM (inactive)

Compound: N=c1oc2ccccc2cc1C(=O)Nc1cccc2ccccc12
- GI50 [1]: > 100 µM (inactive)
- GI50 [2]: > 100 µM (inactive)
- GI50 [3]: > 100 µM (inactive)
- GI50 [18]: > 100 µM (inactive)
- GI50 [5]: > 100 µM
- GI50 [6]: > 100 µM (inactive)
- GI50 [7]: > 100 µM (inactive)
- GI50 [8]: > 100 µM (inactive)
- GI50 [9]: > 100 µM (inactive)
- GI50 [11]: > 100 µM (inactive)
- GI50 [12]: > 100 µM (inactive)
- GI50 [13]: > 100 µM (inactive)
- GI50 [15]: > 100 µM (inactive)
- GI50 [16]: > 100 µM (inactive)
- GI50 [19]: > 100 µM (inactive)
- GI50 [17]: 82.4 µM (inactive)

Compound: CC1CN(c2cc3c(cc2F)c(=O)c(C(=O)O)cn3-c2ccc(N3CCN(C)CC3)cn2)CC(C)N1 (stereo not given)
- GI50 [1]: > 100 µM (inactive)
- GI50 [3]: 52.8 µM (inactive)
- GI50 [4]: > 100 µM (inactive)
- GI50 [5]: > 100 µM
- GI50 [6]: > 100 µM (inactive)
- GI50 [7]: > 100 µM (inactive)
- GI50 [8]: > 100 µM (inactive)
- GI50 [9]: > 100 µM (inactive)
- GI50 [11]: > 100 µM (inactive)
- GI50 [12]: > 100 µM (inactive)
- GI50 [13]: > 100 µM (inactive)
- GI50 [14]: > 100 µM (inactive)
- GI50 [15]: > 100 µM (inactive)
- GI50 [17]: 70.5 µM (inactive)

Compound: Clc1ccc(/C=N/c2ccc3c(c2)Cc2ccccc2-3)c(Cl)c1
- GI50 [1]: > 100 µM (inactive)
- GI50 [2]: > 100 µM (inactive)
- GI50 [3]: > 100 µM (inactive)
- GI50 [4]: > 100 µM (inactive)
- GI50 [5]: 40.6 µM
- GI50 [6]: 77.1 µM (inactive)
- GI50 [7]: > 100 µM (inactive)
- GI50 [8]: > 100 µM (inactive)
- GI50 [9]: 53.2 µM (inactive)
- GI50 [10]: > 100 µM (inactive)
- GI50 [11]: > 100 µM (inactive)
- GI50 [12]: > 100 µM (inactive)
- GI50 [13]: 75.2 µM (inactive)
- GI50 [14]: > 100 µM (inactive)
- GI50 [15]: > 100 µM (inactive)
- GI50 [16]: > 100 µM (inactive)
- GI50 [19]: > 100 µM (inactive)
- GI50 [17]: > 100 µM (inactive)

Compound: CC(C)(C)OC(=O)NC(Cc1ccc(OC(C)(C)C)cc1)C(=O)N[C@H]1CCC[C@H]1C(=O)NC(Cc1ccccc1)C(=O)N1CCCC1C(N)=O (stereo not given in full)
- GI50 [1]: > 100 µM (inactive)
- GI50 [2]: > 100 µM (inactive)
- GI50 [3]: > 100 µM (inactive)
- GI50 [4]: > 100 µM (inactive)
- GI50 [18]: > 100 µM (inactive)
- GI50 [5]: > 100 µM
- GI50 [7]: > 100 µM (inactive)
- GI50 [8]: > 100 µM (inactive)
- GI50 [9]: > 100 µM (inactive)
- GI50 [10]: > 100 µM (inactive)
- GI50 [11]: > 100 µM (inactive)
- GI50 [12]: > 100 µM (inactive)
- GI50 [13]: 80.5 µM (inactive)
- GI50 [14]: > 100 µM (inactive)
- GI50 [15]: > 100 µM (inactive)
- GI50 [16]: > 100 µM (inactive)
- GI50 [19]: > 100 µM (inactive)
- GI50 [17]: > 100 µM (inactive)

Compound: O=C1c2ccccc2-c2nnc3c(c21)-c1ccccc1C3
- GI50 [1]: 62.7 µM (inactive)
- GI50 [2]: 27.5 µM (inactive)
- GI50 [3]: 46.6 µM (inactive)
- GI50 [4]: 18.5 µM (inactive)
- GI50 [5]: 39.4 µM
- GI50 [6]: 60.5 µM (inactive)
- GI50 [7]: > 100 µM (inactive)
- GI50 [9]: > 100 µM (inactive)
- GI50 [10]: 48.6 µM (inactive)
- GI50 [13]: 57.1 µM (inactive)
- GI50 [14]: > 100 µM (inactive)
- GI50 [16]: > 100 µM (inactive)
- GI50 [19]: 66.8 µM (inactive)
- GI50 [17]: 67 µM (inactive)

Reference: ChEMBL document CHEMBL1201862, “PubChem BioAssay data set” (2004)
